Results from publication PMC7827406, “Structure–Activity Relationship (SAR) Study of Spautin-1 to Entail the Discovery of Novel NEK4 Inhibitors” (International Journal of Molecular Sciences, 2021).
Like-named read-outs stand apart in the source and are kept apart here.

What was measured:
Experiment in all cases: biochemical
Design in all cases: Eurofins KinaseProfiler full panel at Km ATP, residual kinase activity (%) relative to DMSO
WNK1(h) = WNK1(h) (Homo sapiens, UniProt Q9H4A3)
Method in brief: (§1)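 Radiometric kinase activity assays were run with ATP at Km and compounds at 10 µM, and remaining activity (%) was reported. A separate competitive binding screen measured DNA-tagged kinase displaced from immobilized active-site ligands by qPCR, giving percent kinase still bound at 10 µM compound in DMSO.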

DRAK2(h) = target: T1, DRAK2(h) (Homo sapiens, UniProt O94768)
T1 construct: gene STK17B
T1 sequence (O94768 1-372): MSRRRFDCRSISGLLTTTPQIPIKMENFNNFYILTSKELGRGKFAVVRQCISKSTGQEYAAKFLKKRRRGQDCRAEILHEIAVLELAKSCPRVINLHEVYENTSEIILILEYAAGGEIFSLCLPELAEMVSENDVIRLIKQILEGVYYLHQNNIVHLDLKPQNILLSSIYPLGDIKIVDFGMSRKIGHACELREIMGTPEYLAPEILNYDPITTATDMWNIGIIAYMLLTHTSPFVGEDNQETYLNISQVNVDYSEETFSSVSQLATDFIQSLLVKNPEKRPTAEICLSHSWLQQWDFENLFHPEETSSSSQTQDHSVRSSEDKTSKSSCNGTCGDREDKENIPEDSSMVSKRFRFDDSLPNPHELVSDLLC
Method in brief: as §1

DDR2(h) = target: T2, DDR2(h) (Homo sapiens, UniProt Q16832)
T2 sequence (Q16832 1-855): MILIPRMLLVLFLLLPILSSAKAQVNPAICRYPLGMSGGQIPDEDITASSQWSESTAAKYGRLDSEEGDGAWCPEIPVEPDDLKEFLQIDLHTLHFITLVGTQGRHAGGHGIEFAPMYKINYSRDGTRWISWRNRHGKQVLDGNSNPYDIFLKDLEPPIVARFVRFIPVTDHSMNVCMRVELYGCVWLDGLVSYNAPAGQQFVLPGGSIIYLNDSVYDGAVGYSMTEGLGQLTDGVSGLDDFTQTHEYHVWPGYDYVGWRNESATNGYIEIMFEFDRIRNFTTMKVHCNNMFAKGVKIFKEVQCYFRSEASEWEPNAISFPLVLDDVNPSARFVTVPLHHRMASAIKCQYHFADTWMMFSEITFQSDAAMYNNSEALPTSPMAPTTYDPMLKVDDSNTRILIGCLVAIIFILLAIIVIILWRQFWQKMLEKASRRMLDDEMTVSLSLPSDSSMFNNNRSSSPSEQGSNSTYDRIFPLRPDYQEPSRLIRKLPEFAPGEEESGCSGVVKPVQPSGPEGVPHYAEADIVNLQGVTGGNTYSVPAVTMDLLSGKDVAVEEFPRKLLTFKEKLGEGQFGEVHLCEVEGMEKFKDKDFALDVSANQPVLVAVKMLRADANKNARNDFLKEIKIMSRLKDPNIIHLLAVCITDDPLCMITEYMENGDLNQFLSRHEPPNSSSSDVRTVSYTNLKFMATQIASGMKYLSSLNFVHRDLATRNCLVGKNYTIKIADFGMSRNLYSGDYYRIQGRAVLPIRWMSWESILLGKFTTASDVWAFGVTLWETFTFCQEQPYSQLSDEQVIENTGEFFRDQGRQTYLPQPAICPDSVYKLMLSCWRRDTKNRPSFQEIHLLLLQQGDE
Method in brief: as §1

CDKL2(h) = target: T3, CDKL2(h) (Homo sapiens, UniProt Q92772)
T3 sequence (Q92772 1-493): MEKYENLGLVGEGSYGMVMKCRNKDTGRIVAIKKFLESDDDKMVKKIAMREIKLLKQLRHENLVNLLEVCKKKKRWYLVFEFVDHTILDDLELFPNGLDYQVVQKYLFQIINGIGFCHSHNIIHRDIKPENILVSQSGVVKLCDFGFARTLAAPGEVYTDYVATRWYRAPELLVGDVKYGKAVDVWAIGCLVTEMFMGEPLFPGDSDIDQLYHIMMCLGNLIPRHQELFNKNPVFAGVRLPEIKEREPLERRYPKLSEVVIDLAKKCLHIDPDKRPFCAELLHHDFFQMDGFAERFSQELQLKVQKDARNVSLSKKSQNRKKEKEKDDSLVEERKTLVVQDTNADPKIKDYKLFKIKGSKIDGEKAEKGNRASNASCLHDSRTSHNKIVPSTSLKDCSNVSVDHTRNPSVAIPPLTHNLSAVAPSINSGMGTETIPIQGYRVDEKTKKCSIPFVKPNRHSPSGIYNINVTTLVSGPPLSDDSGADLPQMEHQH
Method in brief: as §1

TrkC(h) = target: T4, TrkC(h) (Homo sapiens, UniProt Q16288)
T4 construct: gene NTRK3
Method in brief: as §1

Yes(h) = target: T5, Yes(h) (Homo sapiens, UniProt P07947)
T5 construct: gene YES1
Method in brief: as §1

[1] = read-out: Residual activity (%) 5ay
[2] = read-out: Residual activity (%) Spautin-1 5aa
[3] = read-out: Residual activity (%) 5at
[4] = read-out: Residual activity (%) 5as

Sequence of WNK1(h) (Q9H4A3 whole entry): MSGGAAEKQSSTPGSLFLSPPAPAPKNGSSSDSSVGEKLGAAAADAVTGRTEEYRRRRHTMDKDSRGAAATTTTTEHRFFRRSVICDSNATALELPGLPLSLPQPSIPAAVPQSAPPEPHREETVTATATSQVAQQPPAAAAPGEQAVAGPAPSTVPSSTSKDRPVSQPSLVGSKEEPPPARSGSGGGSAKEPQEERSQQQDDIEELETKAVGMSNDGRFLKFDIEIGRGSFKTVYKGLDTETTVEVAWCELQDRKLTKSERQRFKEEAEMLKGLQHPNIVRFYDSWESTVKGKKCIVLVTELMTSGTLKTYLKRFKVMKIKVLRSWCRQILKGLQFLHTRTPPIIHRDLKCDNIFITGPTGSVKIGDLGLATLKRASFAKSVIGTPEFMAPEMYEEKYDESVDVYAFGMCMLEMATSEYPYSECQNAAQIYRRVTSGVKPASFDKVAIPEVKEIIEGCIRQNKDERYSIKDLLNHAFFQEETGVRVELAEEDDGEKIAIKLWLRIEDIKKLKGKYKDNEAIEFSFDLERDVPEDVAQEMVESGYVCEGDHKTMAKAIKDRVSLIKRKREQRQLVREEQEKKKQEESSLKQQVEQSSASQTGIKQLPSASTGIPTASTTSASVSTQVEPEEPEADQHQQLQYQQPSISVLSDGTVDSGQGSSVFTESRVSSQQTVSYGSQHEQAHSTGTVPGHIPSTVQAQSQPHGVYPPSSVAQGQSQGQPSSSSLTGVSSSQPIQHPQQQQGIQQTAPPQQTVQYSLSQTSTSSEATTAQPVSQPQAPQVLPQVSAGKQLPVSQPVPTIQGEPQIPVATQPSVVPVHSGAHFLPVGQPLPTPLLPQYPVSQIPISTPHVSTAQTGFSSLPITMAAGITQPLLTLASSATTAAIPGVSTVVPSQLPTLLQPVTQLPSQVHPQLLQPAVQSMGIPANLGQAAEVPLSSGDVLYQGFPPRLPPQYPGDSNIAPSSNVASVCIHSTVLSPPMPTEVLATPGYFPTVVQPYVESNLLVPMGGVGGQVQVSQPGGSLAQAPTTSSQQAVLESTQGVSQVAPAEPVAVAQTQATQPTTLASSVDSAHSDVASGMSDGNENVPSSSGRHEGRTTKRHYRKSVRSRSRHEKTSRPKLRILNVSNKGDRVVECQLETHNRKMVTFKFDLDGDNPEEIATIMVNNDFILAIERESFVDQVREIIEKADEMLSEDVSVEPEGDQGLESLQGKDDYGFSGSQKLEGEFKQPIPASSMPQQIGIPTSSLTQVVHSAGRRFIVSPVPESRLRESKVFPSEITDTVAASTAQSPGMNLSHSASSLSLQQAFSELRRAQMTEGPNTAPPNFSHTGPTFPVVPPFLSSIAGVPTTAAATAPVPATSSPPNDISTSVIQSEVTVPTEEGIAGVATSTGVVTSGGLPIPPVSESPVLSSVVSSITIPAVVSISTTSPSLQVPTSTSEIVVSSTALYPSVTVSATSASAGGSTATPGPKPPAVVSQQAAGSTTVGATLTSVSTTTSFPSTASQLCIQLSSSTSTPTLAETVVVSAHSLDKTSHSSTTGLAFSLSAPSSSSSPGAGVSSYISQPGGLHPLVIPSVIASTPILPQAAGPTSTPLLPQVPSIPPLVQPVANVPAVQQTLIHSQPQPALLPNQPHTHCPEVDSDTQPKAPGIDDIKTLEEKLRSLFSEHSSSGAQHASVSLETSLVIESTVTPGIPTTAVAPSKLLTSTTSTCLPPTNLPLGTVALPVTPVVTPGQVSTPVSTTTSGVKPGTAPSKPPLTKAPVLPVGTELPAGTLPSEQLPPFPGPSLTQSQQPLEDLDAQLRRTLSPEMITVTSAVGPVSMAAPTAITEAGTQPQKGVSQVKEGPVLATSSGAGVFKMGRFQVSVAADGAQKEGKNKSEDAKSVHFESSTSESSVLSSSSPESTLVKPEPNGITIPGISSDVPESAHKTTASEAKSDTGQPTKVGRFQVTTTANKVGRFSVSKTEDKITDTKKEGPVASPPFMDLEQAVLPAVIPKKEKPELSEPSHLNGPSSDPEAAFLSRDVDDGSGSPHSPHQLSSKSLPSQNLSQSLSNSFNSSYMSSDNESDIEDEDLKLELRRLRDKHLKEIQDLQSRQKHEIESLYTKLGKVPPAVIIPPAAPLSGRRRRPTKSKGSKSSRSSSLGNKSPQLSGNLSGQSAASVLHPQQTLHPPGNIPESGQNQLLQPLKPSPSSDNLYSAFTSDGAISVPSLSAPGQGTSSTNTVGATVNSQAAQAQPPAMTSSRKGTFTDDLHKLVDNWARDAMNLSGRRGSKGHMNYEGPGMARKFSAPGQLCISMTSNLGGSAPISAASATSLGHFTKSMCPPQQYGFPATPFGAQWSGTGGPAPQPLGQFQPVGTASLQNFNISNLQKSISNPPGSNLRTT
T4 sequence (Q16288 whole entry): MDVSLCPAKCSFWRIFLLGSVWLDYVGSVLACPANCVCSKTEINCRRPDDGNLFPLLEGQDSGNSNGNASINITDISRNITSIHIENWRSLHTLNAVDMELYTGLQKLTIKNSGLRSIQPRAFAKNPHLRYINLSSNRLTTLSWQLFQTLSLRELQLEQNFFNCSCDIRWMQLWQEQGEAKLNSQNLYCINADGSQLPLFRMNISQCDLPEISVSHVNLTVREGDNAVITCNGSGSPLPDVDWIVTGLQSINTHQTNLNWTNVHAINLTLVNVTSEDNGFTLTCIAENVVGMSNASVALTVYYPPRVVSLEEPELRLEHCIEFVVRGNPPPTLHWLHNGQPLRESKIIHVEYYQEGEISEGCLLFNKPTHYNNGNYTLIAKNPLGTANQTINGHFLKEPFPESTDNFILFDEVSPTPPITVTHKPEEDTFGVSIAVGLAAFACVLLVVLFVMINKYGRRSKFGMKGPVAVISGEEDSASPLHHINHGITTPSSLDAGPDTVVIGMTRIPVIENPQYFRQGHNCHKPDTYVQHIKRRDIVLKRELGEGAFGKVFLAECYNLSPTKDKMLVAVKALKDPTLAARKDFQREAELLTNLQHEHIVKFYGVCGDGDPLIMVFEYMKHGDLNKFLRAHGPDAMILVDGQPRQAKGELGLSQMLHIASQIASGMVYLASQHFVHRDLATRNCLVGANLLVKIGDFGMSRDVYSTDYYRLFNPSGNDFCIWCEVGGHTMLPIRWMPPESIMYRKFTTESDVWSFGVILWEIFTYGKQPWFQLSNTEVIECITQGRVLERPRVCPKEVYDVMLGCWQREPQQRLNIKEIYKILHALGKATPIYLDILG
T5 sequence (P07947 whole entry): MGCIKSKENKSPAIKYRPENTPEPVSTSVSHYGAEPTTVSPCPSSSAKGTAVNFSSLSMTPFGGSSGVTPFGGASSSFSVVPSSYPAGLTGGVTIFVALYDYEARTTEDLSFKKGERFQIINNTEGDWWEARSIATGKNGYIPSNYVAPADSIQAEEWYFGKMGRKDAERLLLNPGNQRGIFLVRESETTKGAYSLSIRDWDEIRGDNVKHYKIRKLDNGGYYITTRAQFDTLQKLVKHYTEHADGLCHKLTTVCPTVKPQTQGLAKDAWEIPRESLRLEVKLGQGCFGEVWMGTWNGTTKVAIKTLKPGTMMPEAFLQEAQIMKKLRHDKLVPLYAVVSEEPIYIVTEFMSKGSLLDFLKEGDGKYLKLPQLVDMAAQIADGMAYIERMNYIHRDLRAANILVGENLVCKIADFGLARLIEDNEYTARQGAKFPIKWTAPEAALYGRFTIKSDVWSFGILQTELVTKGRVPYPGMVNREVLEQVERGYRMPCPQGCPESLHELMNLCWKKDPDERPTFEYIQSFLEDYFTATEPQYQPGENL

COc1ccc2ncnc(Nc3cccc(F)c3)c2c1 [5ay, N-(3-Fluorophenyl)-6-Methoxy-4-Quinazolinamine]
remaining activity at 10 µM (WNK1(h); [1]): 75% | remaining activity at 10 µM (DRAK2(h); [1]): 65% | remaining activity at 10 µM (DDR2(h); [1]): 84% | remaining activity at 10 µM (CDKL2(h); [1]): 67% | remaining activity at 10 µM (TrkC(h); [1]): 114% | remaining activity at 10 µM (Yes(h); [1]): 72%

Fc1ccc(CNc2ncnc3ccc(F)cc23)cc1 [5aa, 6-Fluoro-N-(4-fluorobenzyl)-4-Quinazolinamine]
remaining activity at 10 µM (WNK1(h); [2]): 78% | remaining activity at 10 µM (DRAK2(h); [2]): 88% | remaining activity at 10 µM (DDR2(h); [2]): 87% | remaining activity at 10 µM (CDKL2(h); [2]): 87% | remaining activity at 10 µM (TrkC(h); [2]): 111% | remaining activity at 10 µM (Yes(h); [2]): 92%

Fc1ccc2ncnc(NCCc3ccc(Cl)cc3)c2c1 [5at, N-[2-(4-Chlorophenyl)Ethyl]-6-Fluoro-4-Quinazolinamine]
remaining activity at 10 µM (WNK1(h); [3]): 92% | remaining activity at 10 µM (DRAK2(h); [3]): 88% | remaining activity at 10 µM (DDR2(h); [3]): 82% | remaining activity at 10 µM (CDKL2(h); [3]): 67% | remaining activity at 10 µM (TrkC(h); [3]): 97% | remaining activity at 10 µM (Yes(h); [3]): 84%

Fc1ccc(CCNc2ncnc3ccc(F)cc23)cc1 [5as, 6-Fluoro-N-[2-(4-Fluorophenyl)Ethyl]-4-Quinazolinamine]
remaining activity at 10 µM (WNK1(h); [4]): 81% | remaining activity at 10 µM (DRAK2(h); [4]): 73% | remaining activity at 10 µM (DDR2(h); [4]): 80% | remaining activity at 10 µM (CDKL2(h); [4]): 103% | remaining activity at 10 µM (TrkC(h); [4]): 104% | remaining activity at 10 µM (Yes(h); [4]): 86%
